How the values were obtained:
Format in all cases: in vivo
Kochia (Kochia scoparia) [1] = assay: Test A preemergence; settings: Bassia scoparia, pre-emergence, 240 h, 0 to 100 scale where 0 is no effect and 100 is complete control, read-out: Kochia plant response rating
Method in brief: (§1)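 Visual injury scores from 0, no effect, to 100, complete control, were assigned versus untreated controls roughly 10 d after treatment in the greenhouse. Test chemicals, formulated with surfactant in a non-phytotoxic solvent, were applied to planted seeds as a preemergence soil spray or postemergence to one- to two-leaf plants 2 to 10 cm tall, in loam–sand soil.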

[2] = test system: barnyardgrass (Echinochloa crus-galli); assay: Test A preemergence; settings: Echinochloa crus-galli, pre-emergence, 240 h, Preemergence
Method in brief: as §1

[3] = test system: giant foxtail (Setaria faberii); assay: Test A preemergence; settings: Setaria faberi, pre-emergence, 240 h, Preemergence
Method in brief: as §1

[4] = test system: pigweed (Amaranthus retroflexus); assay: Test A preemergence; settings: Amaranthus retroflexus, pre-emergence, 240 h, 0 to 100 scale where 0 is no effect and 100 is complete control, read-out: Pigweed plant response rating
[5] = test system: ragweed (common ragweed, Ambrosia elatior); assay: Test A preemergence; settings: Ambrosia artemisiifolia, pre-emergence, 240 h, 0 to 100 scale where 0 is no effect and 100 is complete control, read-out: Ragweed plant response rating
Method in brief: as §1

[6] = test system: ryegrass, Italian (Italian ryegrass, Lolium multiflorum); assay: Test A preemergence; settings: Lolium multiflorum, pre-emergence, 240 h, 0 to 100 scale where 0 is no effect and 100 is complete control, read-out: Ryegrass, Italian plant response rating
Method in brief: as §1

[7] = test system: Galium (catchweed bedstraw, Galium aparine); assay: Test A postemergence; settings: Galium, post-emergence, 240 h
Method in brief: as §1

Kochia (Kochia scoparia) [8] = assay: Test A postemergence; settings: Bassia scoparia, post-emergence, 240 h
Method in brief: as §1

[9] = test system: barnyardgrass (Echinochloa crus-galli); assay: Test A postemergence; settings: Echinochloa crus-galli, post-emergence, 240 h
Method in brief: as §1

[10] = test system: blackgrass (Alopecurus myosuroides); assay: Test A postemergence; settings: Alopecurus myosuroides, post-emergence, 240 h
Method in brief: as §1

corn (Zea mays) = assay: Test A postemergence; settings: Zea mays, post-emergence, 240 h
Method in brief: as §1

[11] = test system: giant foxtail (Setaria faberii); assay: Test A postemergence; settings: Setaria faberi, post-emergence, 240 h
Method in brief: as §1

[12] = test system: pigweed (Amaranthus retroflexus); assay: Test A postemergence; settings: Amaranthus retroflexus, post-emergence, 240 h
Method in brief: as §1

[13] = test system: ragweed (common ragweed, Ambrosia elatior); assay: Test A postemergence; settings: Ambrosia artemisiifolia, post-emergence, 240 h
Method in brief: as §1

[14] = test system: ryegrass, Italian (Italian ryegrass, Lolium multiflorum); assay: Test A postemergence; settings: Lolium multiflorum, post-emergence, 240 h
Method in brief: as §1

[15] = test system: wheat (Triticum aestivum); assay: Test A postemergence; settings: Triticum aestivum, post-emergence, 240 h
Method in brief: as §1

[16] = test system: barnyardgrass (Echinochloa crus-galli); assay: Test B flooded paddy test; settings: Echinochloa crus-galli, 250 g ai/ha, Flood; 0 to 100 scale where 0 is no effect and 100 is complete control; read-out: Barnyardgrass plant response rating
Method in brief: (§2)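 Rating scale 0–100 (visual, vs untreated controls) after a 13–15 d greenhouse period; application to the flood layer, 3 cm above soil and maintained; plants at 2-leaf stage when treated.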

[17] = test system: ducksalad (Heteranthera limosa); assay: Test B flooded paddy test; settings: Heteranthera limosa, 250 g ai/ha, Flood; 0 to 100 scale where 0 is no effect and 100 is complete control; read-out: Ducksalad plant response rating
Method in brief: as §2

rice (Oryra sativa) = assay: Test B flooded paddy test; settings: Oryza sativa, 250 g ai/ha, Flood; 0 to 100 scale where 0 is no effect and 100 is complete control; read-out: Rice plant response rating
Method in brief: as §2

[18] = test system: sedge, umbrella (small-flower umbrella sedge, Cyperus difformis); assay: Test B flooded paddy test; settings: Cyperus difformis, 250 g ai/ha, Flood; 0 to 100 scale where 0 is no effect and 100 is complete control; read-out: Sedge, Umbrella plant response rating
Method in brief: as §2

[19] = 125 g ai/ha, preemergence, approx. 10 d

COc1cccc([C@H]2CNC(=O)[C@@H]2C(=O)Nc2cccc(F)c2F)c1F [Compound 1061]
70%: pest or weed control at 125 g/ha ([3]; 125 g ai/ha, visual injury rating after approximately 10 d, read-out: Foxtail, Giant plant response rating (0 to 100 scale, 0 is no effect, 100 is complete control))
60%: pest or weed control at 250 g/ha [16]
20%: pest or weed control at 31 g/ha ([3]; 31 g ai/ha, 0 to 100 scale where 0 is no effect and 100 is complete control, read-out: Foxtail, Giant plant response rating) | pest or weed control at 125 g/ha ([11]; 125 g ai/ha, postemergence, visual injury on 0 to 100 scale (0 no effect, 100 complete control), approx. 10 d, read-out: Foxtail, Giant plant response rating)
95%: pest or weed control at 250 g/ha [17]
50%: pest or weed control at 31 g/ha ([9]; Postemergence, 31 g ai/ha, visual injury after approx. 10 d, 0 to 100 scale, 0 no effect, 100 complete control, read-out: Plant response rating, Barnyardgrass)
15%: pest or weed control at 250 g/ha (rice (Oryra sativa))
0%: pest or weed control at 31 g/ha (Kochia (Kochia scoparia) [1]; 31 g ai/ha, Preemergence) | pest or weed control at 125 g/ha (Kochia (Kochia scoparia) [1]; [19]) | pest or weed control at 31 g/ha ([4]; 31 g ai/ha, Preemergence) | pest or weed control at 125 g/ha [4, 19] | pest or weed control at 31 g/ha ([5]; 31 g ai/ha, Preemergence) | pest or weed control at 125 g/ha [5, 19] | pest or weed control at 31 g/ha ([6]; 31 g ai/ha, Preemergence) | pest or weed control at 125 g/ha [6, 19] | pest or weed control at 125 g/ha ([7]; 125 g ai/ha, postemergence, visual injury on 0 to 100 scale (0 no effect, 100 complete control), approx. 10 d, read-out: Galium plant response rating) | pest or weed control at 31 g/ha ([7]; Postemergence, 31 g ai/ha, visual injury after approx. 10 d, 0 to 100 scale, 0 no effect, 100 complete control, read-out: Plant response rating, Galium) | pest or weed control at 125 g/ha (Kochia (Kochia scoparia) [8]; 125 g ai/ha, postemergence, visual injury on 0 to 100 scale (0 no effect, 100 complete control), approx. 10 d, read-out: Kochia plant response rating) | pest or weed control at 31 g/ha (Kochia (Kochia scoparia) [8]; Postemergence, 31 g ai/ha, visual injury after approx. 10 d, 0 to 100 scale, 0 no effect, 100 complete control, read-out: Plant response rating, Kochia) | pest or weed control at 125 g/ha ([10]; 125 g ai/ha, postemergence, visual injury on 0 to 100 scale (0 no effect, 100 complete control), approx. 10 d, read-out: Blackgrass plant response rating) | pest or weed control at 31 g/ha ([10]; Postemergence, 31 g ai/ha, visual injury after approx. 10 d, 0 to 100 scale, 0 no effect, 100 complete control, read-out: Plant response rating, Blackgrass) | plant injury at 125 g/ha (corn (Zea mays); 125 g ai/ha, postemergence, visual injury on 0 to 100 scale (0 no effect, 100 complete control), approx. 10 d, read-out: Corn plant response rating) | Corn plant response rating (crop injury, 0 = no effect, 100 = complete kill) at 31 g/ha (corn (Zea mays); Postemergence, 31 g ai/ha, visual injury after approx. 10 d, 0 to 100 scale, 0 no effect, 100 complete control) | pest or weed control at 31 g/ha ([11]; Postemergence, 31 g ai/ha, visual injury after approx. 10 d, 0 to 100 scale, 0 no effect, 100 complete control, read-out: Plant response rating, Foxtail, Giant) | pest or weed control at 125 g/ha ([12]; 125 g ai/ha, postemergence, visual injury on 0 to 100 scale (0 no effect, 100 complete control), approx. 10 d, read-out: Pigweed plant response rating) | pest or weed control at 31 g/ha ([12]; Postemergence, 31 g ai/ha, visual injury after approx. 10 d, 0 to 100 scale, 0 no effect, 100 complete control, read-out: Plant response rating, Pigweed) | pest or weed control at 125 g/ha ([13]; 125 g ai/ha, postemergence, visual injury on 0 to 100 scale (0 no effect, 100 complete control), approx. 10 d, read-out: Ragweed plant response rating) | pest or weed control at 31 g/ha ([13]; Postemergence, 31 g ai/ha, visual injury after approx. 10 d, 0 to 100 scale, 0 no effect, 100 complete control, read-out: Plant response rating, Ragweed) | pest or weed control at 125 g/ha ([14]; 125 g ai/ha, postemergence, visual injury on 0 to 100 scale (0 no effect, 100 complete control), approx. 10 d, read-out: Ryegrass, Italian plant response rating) | pest or weed control at 31 g/ha ([14]; Postemergence, 31 g ai/ha, visual injury after approx. 10 d, 0 to 100 scale, 0 no effect, 100 complete control, read-out: Plant response rating, Ryegrass, Italian) | plant injury at 125 g/ha ([15]; 125 g ai/ha, postemergence, visual injury on 0 to 100 scale (0 no effect, 100 complete control), approx. 10 d, read-out: Wheat plant response rating) | plant injury at 31 g/ha ([15]; Postemergence, 31 g ai/ha, visual injury after approx. 10 d, 0 to 100 scale, 0 no effect, 100 complete control, read-out: Plant response rating, Wheat) | pest or weed control at 250 g/ha [18]
40%: pest or weed control at 31 g/ha ([2]; 31 g ai/ha, 0 to 100 scale where 0 is no effect and 100 is complete control, read-out: Barnyardgrass plant response rating)
80%: pest or weed control at 125 g/ha ([2]; 125 g ai/ha, visual injury rating after approximately 10 d, read-out: Barnyardgrass plant response rating (0 to 100 scale, 0 is no effect, 100 is complete control)) | pest or weed control at 125 g/ha ([9]; 125 g ai/ha, postemergence, visual injury on 0 to 100 scale (0 no effect, 100 complete control), approx. 10 d, read-out: Barnyardgrass plant response rating)

Reference: US12077503B2, “Substituted cyclic amides and their use as herbicides” (FMC CORPORATION, priority 2015, dated 2024)
